The test system of one data set is KB cells. Nature of the data set: Cytotoxicity: 50% reduction in cell number of KB cells after three day incubation. The format is cell-based. The following applies: Homo sapiens, 72 h, read-out: Cytotoxicity ID50 KB. The procedure: (§1) The compounds of the present invention were tested for their degree of inhibitory activity on human type II DNA topoisomerase, their effect on the formation of protein-linked DNA breakage, and their cytotoxicity. The inhibitory activity for compounds of the present invention correlated with the ability of the compounds to cause DNA strand breakage. […] For a description of the assays used with respect to the compounds listed in Tables 1 to 5 see Thurston, L.S., Irie, H., Tani, S., Han, F. S., Liu, Z. C., Cheng, Y.C., and Lee, K. H., Antitumor Agents 78. Inhibition of Human DNA Topoisomerase II by Podophyllotoxin and Peltatin Analogues, J. Med. Chem. 29, 1547 (1986), and the references cited therein, herein incorporated by reference.
in cell number after three day incubation.

Data set [1] concerns the target Human DNA topoisomerase II. As to the kind of experiment: DNA topoisomerase II assay (P4 unknotting reaction). In kind it is biochemical. The following applies: for IC50: read-out: Inhibition of DNA Topoisomerase II Activity ID50; for inhibition of DNA topoisomerase activity relative to etoposide: compared with etoposide. On the procedure: as §1, with “cytotoxicity.” for “cytotoxicity. The inhibitory activity for compounds of the present invention correlated with the ability of the compounds to cause DNA strand breakage.”
Human DNA topoisomerase II was isolated from peripheral blast cells of a patient with acute leukemia. The isolation procedure is described in Thurston, L., Imakura, Y., Haruna, M., Li, Z. C., Liu, S. Y., and Lee, K. H., J. Med. Chem., 31, […] (1988) and is a partial combination of the procedure described in Goto, T., Laiapia, P. and Wang, J., J. Biol. Chem., 259, 10422 (1984) and Halligan, B., Edwards, K., and Liu, L., J. Biol. Chem., 260, 2475 (1985) which are herein specifically incorporated by reference.
(§2) Drugs were dissolved in Me2 SO at a concentration of 20 mM as the stock solution and diluted before use with water to the desired concentration of each drug.
The P4 unknotting reaction was a modification of the procedure described by Hseih, T., J. Biol. Chem., 258, 8413 (1985), which is herein specifically incorporated by reference.
The reaction mixture (20 μL), which contained 50 mM HEPES, pH 7.0, 50 mM KCI, 100 mM NaCl, 0.1 mM EDTA, 10 mM MgCl2, 1.0 mM ATP, 50 μg/mL bovine serum albumin, 0.4 μg P4knotted DNA, and enzyme, was incubated with or without drugs.
The reaction mixture was incubated at 37° C. for 30 min and terminated by adding 5.0 μl of a stop solution (2% sodium dodecyl sulfate, 20% glycerol, 0.05% bromophenol blue). These samples were loaded onto a 1% agarose gel and electrophoresed at 55 V overnight with an electrophoresis buffer that contained 90 mM Tris-boric acid, pH 8.3, and 2.5 mM EDTA. At completion, the gel was stained in 0.5 μg/mL of ethidium bromide. Then a photograph was taken of the DNA bands visualized with fluorescence induced by a long-wavelength UV lamp. […]

Data set [2] relates to covalent topoisomerase II-DNA complexes. As to the kind of experiment: K-SDS precipitation assay for protein-DNA complexes in KB ATCC cells (cellular protein-DNA complex formation). In kind it is cell-based. The following applies: compared with etoposide. On the procedure: as §1, §2
The intracellular formation of covalent topoisomerase II-DNA complexes was quantitated using the potassium SDS precipitation assay, a procedure adapted from the method described in Rowe, T. C., Chen, G. L., Hsiang, Y. H., and Liu, L., Cancer Res., 46, 2021 (1986) (hereinafter Rowe et al.), which is herein specifically incorporated by reference. KB ATCC cells were prelabeled with 0.05 mCi/ml ^14 C-thymidine (specific activity 50.5 mCi/mmol) for 18 hr. A final concentration of 5×10^5 cells/sample were treated with 10 μM of the drugs at 37° C. for 1 hr and proceeded according to the procedure described by Rowe et al. to detect the protein linked DNA levels.

The subject of data set [3] is Human DNA topoisomerase II. Conditions: at higher concentrations; Thurston et al. 1986; cited from earlier work.
Data set [4] deals with several human neoplasms, including small cell carcinomas of the lung, testicular carcinomas, Hodgkin's disease, leukemia, lymphoma and Kaposi's Sarcoma. The following applies: background; cited from earlier work.
The conditions of data set [5]: clinical level; background; cited from earlier work.
The conditions of data set [6]: clinical level; background; cited from earlier work. The source holds these as a separate data set.
The mark [7] stands for this setting: Table 1, KB cells, three day incubation.
Where [8] appears, read: Table 1, based on degree of inhibition at 25, 50, and 100 μM.
Setting [9] is: Table 2, KB cells, three day incubation.
Where [10] appears, read: Table 2, based on degree of inhibition at 10, 25, 50 and 100 μM.
The mark [11] stands for this setting: Table 3, KB cells, three day incubation.
Setting [12] is: Table 3, based on degree of inhibition at 20, 25, 50 and 100 μM.

Where two headings read alike, the source gives them in different places.

As for `COc1cc(C2c3cc4c(cc3C(NCc3ccc(C#N)cc3)C3COC(=O)C23)OCO4)cc(OC)c1O` (stereo not drawn) [Example 11, 4'-O-Demethyl-4β-(4"-cyanobenzylamino)-4-desoxypodophyllotoxin], the IC50 with KB cells (setting [7]) is below 0.4 µM; in data set [1] (setting [8]), 25 µM. Further, in data set [1], the “inhibition of DNA topoisomerase activity relative to etoposide” value is “over twice”. Further, the “inhibition of cellular protein-DNA complex formation relative to etoposide” value in data set [2] is on record as “over twice”.

Regarding `COc1cc(C2c3cc4c(cc3C(Nc3ccc([N+](=O)[O-])cc3)C3COC(=O)C23)OCO4)cc(O)c1O` (stereo not drawn) [Example 23, 3',4'-O-Didemethyl-4β-(4"-nitroanilino)-4-desoxypodophyllotoxin], the IC50 with KB cells (setting [9]) was 1.3 µM; in data set [1] (setting [10]) it was 10 µM. Besides, the “inhibition of DNA topoisomerase activity relative to etoposide” value in data set [1] was “over twice”. In addition, the “inhibition of cellular protein-DNA complex formation relative to etoposide” value in data set [2] was “over twice”.

In the case of `COc1cc(C2c3cc4c(cc3C(NCc3cccc(C#N)c3)C3COC(=O)C23)OCO4)cc(OC)c1O` (stereo not drawn) [Example 10, 4'-O-Demethyl-4β-(3"-cyanobenzylamino)-4-desoxypodophyllotoxin], the IC50 in the data set with KB cells (setting [7]) is below 0.4 µM; in data set [1] (setting [8]) it was 25 µM. Also, the “inhibition of DNA topoisomerase activity relative to etoposide” value in data set [1] was “over twice”. In addition, the “inhibition of cellular protein-DNA complex formation relative to etoposide” value in data set [2] is on record as “over twice”.

For `CCOC(=O)c1ccc(N[C@@H]2c3cc(O)c(O)cc3[C@@H](c3cc(OC)c(O)c(OC)c3)[C@H]3C(=O)OC[C@@H]32)cc1` [Example 28, 6,7-O-Demethylene-4'-O-demethyl-4β-[4"-(ethoxycarbonyl)anilino]-4-desoxypodophyllotoxin], the IC50 was 0.78 µM in the data set with KB cells (setting [11]) and 20 µM in data set [1] (setting [12]).

In the case of `COc1cc(C2c3cc4c(cc3C(NCc3cccc(F)c3)C3COC(=O)C23)OCO4)cc(OC)c1O` (stereo not drawn) [Example 8, 4-O-Dimethyl-4β-(3"-fluorobenzylamino)-4-desoxypodophyllotoxin], the IC50 with KB cells (setting [7]) was found to be 3 µM; in data set [1] (setting [8]), 25 µM. Further, the “inhibition of DNA topoisomerase activity relative to etoposide” value in data set [1] was “over twice”. In data set [2], the “inhibition of cellular protein-DNA complex formation relative to etoposide” value was “over twice”.

As for `COc1cc(C2c3cc4c(cc3C(NCc3cccc([N+](=O)[O-])c3)C3COC(=O)C23)OCO4)cc(OC)c1O` (stereo not drawn) [Example 5, 4'-O-Demethyl-4β-(3"-nitrobenzylamino)-4-desoxypodophyllotoxin], the IC50 with KB cells (setting [7]) is below 0.4 µM; in data set [1] (setting [8]), 25 µM.

For the compound `COC1=CC([C@@H]2c3cc4c(cc3[C@@H](Nc3ccc([N+](=O)[O-])cc3)[C@H]3COC(=O)[C@@H]32)OCO4)=CC(=O)C1=O` [Example 44, 3',4'-Didemethoxy-3',4'-dioxo-4β-(4"-nitroanilino)-4-desoxypodophyllotoxin], the IC50 in the data set with KB cells (KB) was found to be 1.5 µM; in data set [1] (Table 5, based on degree of inhibition at 10, 25, 50 and 100 μM) it was 10 µM.

With `COc1cc(C2c3cc4c(cc3C(NCc3ccccc3F)C3COC(=O)C23)OCO4)cc(OC)c1O` (stereo not drawn) [Example 7, 4-O-Demethyl-4β-(2"-fluorobenzylamino)-4-desoxypodophyllotoxin], the IC50 in the data set on KB cells (setting [7]) was 1.9 µM; in data set [1] (setting [8]), 100 µM.

Consider `COc1cc([C@@H]2c3cc(O)c(O)cc3[C@@H](Nc3ccccc3)[C@H]3COC(=O)[C@H]23)cc(OC)c1O` [Example 26, 6,7-O-Demethylene-4'-O-demethyl-4β-anilino-4-desoxypophyllotoxin], for which the IC50 in the data set with KB cells (KB) is above 1 µM; in data set [1] (setting [12]), 25 µM.

On to `CCOC1c2cc3c(cc2C(c2cc(OC)c(O)c(OC)c2)C2C(=O)OCC12)OCO3` (stereo not drawn) [4'-demethyl-epipodophyllotoxin ethyl ether], for which the “inhibitory activity of DNA topoisomerase II” value in data set [3] was “preserves the inhibitory activity of DNA topoisomerase II intact at higher concentrations”.

`COc1cc(C2c3cc4c(cc3C(Nc3ccccc3)C3COC(=O)C23)OCO4)cc(O)c1O` (stereo not drawn) [Example 17, 3',4'-O-Didemethyl-4β-anilino-4-desoxypodophyllotoxin]: the IC50 is 1.7 µM in the data set with KB cells (setting [9]) and 25 µM in data set [1] (setting [10]).

As to `COc1cc(C2c3cc4c(cc3C(NCc3ccc(F)cc3)C3COC(=O)C23)OCO4)cc(OC)c1O` (stereo not drawn) [Example 9, 4'-O-Demethyl-4β-(4"-fluorobenzylamino)-4-desoxypodophyllotoxin], the IC50 in the data set on KB cells (setting [7]) was above 4 µM; in data set [1] (setting [8]) it was 50 µM.

As for `COc1cc(C2c3cc4c(cc3C(NCc3ccccc3)C3COC(=O)C23)OCO4)cc(OC)c1O` (stereo not drawn) [Example 3, 4'-O-Demethyl-4β-benzylamino-4-desoxypodophyllotoxin], the figures for the IC50 (with KB cells (setting [7]); in data set [1] (setting [8])) were 2.2 µM and 25 µM, respectively.

In the case of `COc1cc([C@@H]2c3cc4c(cc3[C@@H](O[C@@H]3O[C@@H]5CO[C@@H](C)O[C@H]5[C@H](O)[C@H]3O)[C@H]3COC(=O)[C@H]23)OCO4)cc(OC)c1O` [etoposide], the IC50 in the data set on KB cells (setting [7]) is 0.2 µM. Moreover, the “therapeutic activity in several human neoplasms” value in data set [4] is given as “exhibits therapeutic activity in several human neoplasms”. In data set [5], the myelosuppression result was “myelosuppression”. In data set [6], the oral bioavailability result was “poor oral bioavailability”.

Regarding `COc1cc(C2c3cc4c(cc3C(NCc3ccccc3[N+](=O)[O-])C3COC(=O)C23)OCO4)cc(OC)c1O` (stereo not drawn) [Example 6, 4'-O-Demethyl-4β-(2"-nitrobenzylamino)-4-desoxypodophyllotoxin], the IC50 turned out to be 1.8 µM in the data set on KB cells (setting [7]) and 50 µM in data set [1] (setting [8]).

Turning to `COc1cc2c(cc1OC)[C@@H](Nc1ccc(C#N)cc1)[C@H]1COC(=O)[C@@H]1[C@@H]2c1cc(OC)c(O)c(OC)c1` [Example 32, 6,7-O-demethylene-6,7-O-dimethyl-4'-O-demethyl-4β-(4"-cyanoanilino)-4-desoxypodophyllotoxin], the values for the IC50 (in the data set with KB cells (setting [11]); in data set [1] (setting [12])) were below 0.4 µM and 50 µM, respectively.

As to `COc1cc([C@@H]2c3cc4c(cc3[C@@H](NC(=O)c3ccccc3)[C@H]3COC(=O)[C@H]23)OCO4)cc(OC)c1O` [Example 34, 4'-O-Demethyl-4β-(benzoylamino)-4-desoxypodophyllotoxin], the IC50 in the data set with KB cells (Table 4, KB cells, three day incubation) is 0.64 µM; in data set [1] (Table 4, based on degree of inhibition at 10, 25, 50 and 100 μM), above 50 µM.

On to `CCOC(=O)c1ccc(N[C@@H]2c3cc(OC)c(OC)cc3[C@@H](c3cc(OC)c(O)c(OC)c3)[C@H]3C(=O)OC[C@@H]32)cc1` [Example 33, 6,7-O-demethylene-6,7-O-dimethyl-4'-O-demethyl-4β-[4"-(ethoxycarbonyl)anilino]-4-desoxypodophyllotoxin], for which the IC50 in the data set with KB cells (setting [11]) was below 0.4 µM; in data set [1] (setting [12]), 100 µM.

(Values after US5332811A, “Etopside analogs” (priority 1991, dated 1994).)
